Data: ChEMBL document CHEMBL1141507, “Entry into a new class of protein kinase inhibitors by pseudo ring design” (Bioorg Med Chem Lett, 2008)

Tests used:
[1] = target: Vascular endothelial growth factor receptor 2 (Homo sapiens, UniProt P35968); assay: Inhibition of KDR
[2] = target: Insulin-like growth factor 1 receptor (Homo sapiens, UniProt P08069); assay: Inhibition of IGF1R
[3] = target: Fibroblast growth factor receptor 1 (Homo sapiens, UniProt P11362); assay: Inhibition of FGFR1
[4] = target: Proto-oncogene tyrosine-protein kinase Src (Homo sapiens, UniProt P12931); assay: Inhibition of cSrc
Sequence of Proto-oncogene tyrosine-protein kinase Src (P12931 2-536 limits assumed): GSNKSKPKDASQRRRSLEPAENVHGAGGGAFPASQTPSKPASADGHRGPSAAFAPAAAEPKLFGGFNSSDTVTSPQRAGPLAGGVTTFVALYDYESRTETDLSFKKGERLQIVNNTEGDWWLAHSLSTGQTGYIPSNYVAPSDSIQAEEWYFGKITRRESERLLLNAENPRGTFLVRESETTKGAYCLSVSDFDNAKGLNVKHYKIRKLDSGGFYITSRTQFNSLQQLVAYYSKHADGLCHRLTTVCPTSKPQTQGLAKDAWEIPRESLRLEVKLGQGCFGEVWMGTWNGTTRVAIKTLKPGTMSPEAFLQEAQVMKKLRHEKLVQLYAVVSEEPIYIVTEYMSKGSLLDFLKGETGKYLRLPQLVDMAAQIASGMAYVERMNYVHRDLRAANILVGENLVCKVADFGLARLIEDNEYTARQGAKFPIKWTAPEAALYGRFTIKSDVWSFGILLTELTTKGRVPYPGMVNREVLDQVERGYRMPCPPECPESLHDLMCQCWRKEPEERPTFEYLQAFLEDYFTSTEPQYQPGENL

[5] = target: Cyclin-dependent kinase 2 (Homo sapiens, UniProt P24941); assay: Inhibition of CDK2
[6] = target: Mast/stem cell growth factor receptor Kit (Homo sapiens, UniProt P10721); assay: Inhibition of cKit
[7] = target: Tyrosine-protein kinase JAK2 (Homo sapiens, UniProt O60674); assay: Inhibition of JAK2
Sequence of Tyrosine-protein kinase JAK2 (O60674 whole entry): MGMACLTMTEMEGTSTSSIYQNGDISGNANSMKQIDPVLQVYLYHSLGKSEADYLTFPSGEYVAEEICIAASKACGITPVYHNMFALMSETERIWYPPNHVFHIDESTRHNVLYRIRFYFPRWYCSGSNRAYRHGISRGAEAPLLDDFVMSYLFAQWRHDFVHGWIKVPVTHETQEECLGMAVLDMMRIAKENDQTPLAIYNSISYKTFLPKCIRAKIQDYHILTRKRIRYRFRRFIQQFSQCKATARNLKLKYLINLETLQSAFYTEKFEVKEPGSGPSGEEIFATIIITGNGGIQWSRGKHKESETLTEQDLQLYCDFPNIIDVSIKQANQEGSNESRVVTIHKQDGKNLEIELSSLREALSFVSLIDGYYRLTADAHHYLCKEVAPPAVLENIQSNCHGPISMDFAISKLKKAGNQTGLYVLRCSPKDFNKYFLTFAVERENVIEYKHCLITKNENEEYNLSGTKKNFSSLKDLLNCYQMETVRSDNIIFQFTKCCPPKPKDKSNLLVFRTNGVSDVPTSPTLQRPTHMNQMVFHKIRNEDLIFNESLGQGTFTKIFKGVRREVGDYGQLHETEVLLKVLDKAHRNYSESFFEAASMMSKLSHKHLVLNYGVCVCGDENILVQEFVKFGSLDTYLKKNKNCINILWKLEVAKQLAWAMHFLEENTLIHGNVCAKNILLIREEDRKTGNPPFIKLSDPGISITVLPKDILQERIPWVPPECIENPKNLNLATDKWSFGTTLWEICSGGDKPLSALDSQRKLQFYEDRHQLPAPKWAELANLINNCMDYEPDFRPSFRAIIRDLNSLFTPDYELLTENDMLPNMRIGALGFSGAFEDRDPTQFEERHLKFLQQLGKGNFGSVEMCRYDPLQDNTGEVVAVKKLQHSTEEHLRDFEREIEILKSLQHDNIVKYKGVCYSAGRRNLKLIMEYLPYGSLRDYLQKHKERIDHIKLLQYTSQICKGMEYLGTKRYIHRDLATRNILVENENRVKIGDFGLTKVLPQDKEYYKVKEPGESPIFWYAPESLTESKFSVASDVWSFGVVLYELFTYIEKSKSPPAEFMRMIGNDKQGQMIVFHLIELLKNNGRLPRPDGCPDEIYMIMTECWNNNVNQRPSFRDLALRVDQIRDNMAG

[8] = Inhibition of p38 kinase
[9] = target: Hepatocyte growth factor receptor (Homo sapiens, UniProt P08581); assay: Inhibition of cMet
Sequence of Hepatocyte growth factor receptor (P08581 whole entry): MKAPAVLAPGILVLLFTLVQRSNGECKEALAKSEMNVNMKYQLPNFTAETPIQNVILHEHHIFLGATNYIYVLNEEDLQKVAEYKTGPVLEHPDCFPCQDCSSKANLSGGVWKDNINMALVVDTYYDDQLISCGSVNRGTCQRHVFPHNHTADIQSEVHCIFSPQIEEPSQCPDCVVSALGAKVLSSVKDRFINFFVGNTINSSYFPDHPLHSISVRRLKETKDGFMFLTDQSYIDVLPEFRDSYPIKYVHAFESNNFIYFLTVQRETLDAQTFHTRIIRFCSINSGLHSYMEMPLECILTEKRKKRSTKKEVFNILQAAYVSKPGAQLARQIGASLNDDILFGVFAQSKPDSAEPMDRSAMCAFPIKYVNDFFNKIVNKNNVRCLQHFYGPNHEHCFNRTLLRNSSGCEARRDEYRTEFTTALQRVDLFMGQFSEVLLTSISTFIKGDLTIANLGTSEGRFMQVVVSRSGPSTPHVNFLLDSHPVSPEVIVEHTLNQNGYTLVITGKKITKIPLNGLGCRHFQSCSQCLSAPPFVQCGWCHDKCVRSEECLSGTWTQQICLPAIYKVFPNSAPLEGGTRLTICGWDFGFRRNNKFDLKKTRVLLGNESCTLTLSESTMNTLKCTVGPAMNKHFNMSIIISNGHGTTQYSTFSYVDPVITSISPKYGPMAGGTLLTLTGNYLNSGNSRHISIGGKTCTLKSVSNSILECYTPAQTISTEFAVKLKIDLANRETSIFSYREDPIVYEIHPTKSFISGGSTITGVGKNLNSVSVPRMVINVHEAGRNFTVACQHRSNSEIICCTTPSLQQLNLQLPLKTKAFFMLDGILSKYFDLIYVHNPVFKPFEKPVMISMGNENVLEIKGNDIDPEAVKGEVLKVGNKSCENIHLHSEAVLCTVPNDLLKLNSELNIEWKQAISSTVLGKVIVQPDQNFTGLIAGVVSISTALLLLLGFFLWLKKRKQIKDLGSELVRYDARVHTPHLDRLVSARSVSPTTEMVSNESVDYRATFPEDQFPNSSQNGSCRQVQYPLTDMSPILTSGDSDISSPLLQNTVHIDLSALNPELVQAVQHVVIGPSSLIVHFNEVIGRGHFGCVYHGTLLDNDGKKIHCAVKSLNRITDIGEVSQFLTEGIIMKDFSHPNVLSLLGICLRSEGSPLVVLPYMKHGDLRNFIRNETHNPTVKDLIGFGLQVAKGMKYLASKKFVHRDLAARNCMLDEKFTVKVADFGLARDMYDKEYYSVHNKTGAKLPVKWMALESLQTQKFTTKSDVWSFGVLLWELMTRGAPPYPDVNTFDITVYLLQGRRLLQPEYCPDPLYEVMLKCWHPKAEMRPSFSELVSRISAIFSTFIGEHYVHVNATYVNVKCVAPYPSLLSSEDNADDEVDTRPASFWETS

[10] = target: Angiopoietin-1 receptor (Homo sapiens, UniProt Q02763); assay: Inhibition of Tie2
[11] = target: Tyrosine-protein kinase ABL1 (Homo sapiens, UniProt P00519)
[12] = Inhibition of PKA
[13] = target: T1, Receptor-type tyrosine-protein kinase FLT3 (Homo sapiens, UniProt P36888); assay: Inhibition of FLT3
T1 sequence (P36888 whole entry): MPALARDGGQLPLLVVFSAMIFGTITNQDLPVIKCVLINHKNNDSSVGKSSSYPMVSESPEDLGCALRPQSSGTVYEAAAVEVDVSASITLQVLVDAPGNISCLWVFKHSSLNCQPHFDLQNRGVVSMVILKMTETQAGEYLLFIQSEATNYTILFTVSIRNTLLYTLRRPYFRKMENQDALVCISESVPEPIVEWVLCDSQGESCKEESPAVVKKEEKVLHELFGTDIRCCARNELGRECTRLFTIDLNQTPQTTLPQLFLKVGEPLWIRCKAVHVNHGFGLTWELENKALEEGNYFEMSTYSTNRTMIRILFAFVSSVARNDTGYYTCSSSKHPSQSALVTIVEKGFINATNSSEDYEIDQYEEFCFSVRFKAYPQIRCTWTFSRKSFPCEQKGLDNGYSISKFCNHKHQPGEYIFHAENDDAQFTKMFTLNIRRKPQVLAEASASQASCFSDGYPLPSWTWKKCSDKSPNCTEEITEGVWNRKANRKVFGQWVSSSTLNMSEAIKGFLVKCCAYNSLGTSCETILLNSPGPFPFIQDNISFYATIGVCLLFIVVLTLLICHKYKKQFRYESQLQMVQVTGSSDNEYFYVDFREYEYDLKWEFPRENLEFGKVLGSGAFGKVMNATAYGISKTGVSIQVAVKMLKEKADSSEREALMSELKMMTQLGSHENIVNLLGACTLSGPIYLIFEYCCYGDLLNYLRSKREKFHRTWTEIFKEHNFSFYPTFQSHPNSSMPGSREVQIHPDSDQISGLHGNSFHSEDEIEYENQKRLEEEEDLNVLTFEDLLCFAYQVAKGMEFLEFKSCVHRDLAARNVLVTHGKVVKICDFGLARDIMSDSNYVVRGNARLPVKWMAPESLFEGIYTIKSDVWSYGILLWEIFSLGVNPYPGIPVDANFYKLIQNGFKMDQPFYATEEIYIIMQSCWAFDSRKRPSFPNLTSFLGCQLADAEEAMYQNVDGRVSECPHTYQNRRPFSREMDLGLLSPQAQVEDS

[14] = target: RAC-alpha serine/threonine-protein kinase (Homo sapiens, UniProt P31749); assay: Inhibition of PKB
Sequence of RAC-alpha serine/threonine-protein kinase (P31749 whole entry): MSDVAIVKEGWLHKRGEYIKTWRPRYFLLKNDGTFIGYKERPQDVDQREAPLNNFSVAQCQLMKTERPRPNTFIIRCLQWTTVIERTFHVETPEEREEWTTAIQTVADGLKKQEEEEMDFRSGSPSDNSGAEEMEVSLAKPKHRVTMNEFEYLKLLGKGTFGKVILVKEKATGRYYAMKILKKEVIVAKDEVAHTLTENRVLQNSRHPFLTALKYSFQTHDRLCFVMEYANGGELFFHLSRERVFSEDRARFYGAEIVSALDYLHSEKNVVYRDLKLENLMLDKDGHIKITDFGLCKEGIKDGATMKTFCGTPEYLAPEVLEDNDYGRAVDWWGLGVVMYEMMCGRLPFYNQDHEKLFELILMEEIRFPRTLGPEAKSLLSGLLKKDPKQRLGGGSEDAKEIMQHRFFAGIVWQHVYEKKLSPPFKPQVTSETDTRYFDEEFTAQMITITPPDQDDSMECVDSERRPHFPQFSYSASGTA

[15] = target: T2, Tyrosine-protein kinase receptor UFO (Homo sapiens, UniProt P30530); assay: Inhibition of Axl kinase
T2 sequence (P30530 whole entry): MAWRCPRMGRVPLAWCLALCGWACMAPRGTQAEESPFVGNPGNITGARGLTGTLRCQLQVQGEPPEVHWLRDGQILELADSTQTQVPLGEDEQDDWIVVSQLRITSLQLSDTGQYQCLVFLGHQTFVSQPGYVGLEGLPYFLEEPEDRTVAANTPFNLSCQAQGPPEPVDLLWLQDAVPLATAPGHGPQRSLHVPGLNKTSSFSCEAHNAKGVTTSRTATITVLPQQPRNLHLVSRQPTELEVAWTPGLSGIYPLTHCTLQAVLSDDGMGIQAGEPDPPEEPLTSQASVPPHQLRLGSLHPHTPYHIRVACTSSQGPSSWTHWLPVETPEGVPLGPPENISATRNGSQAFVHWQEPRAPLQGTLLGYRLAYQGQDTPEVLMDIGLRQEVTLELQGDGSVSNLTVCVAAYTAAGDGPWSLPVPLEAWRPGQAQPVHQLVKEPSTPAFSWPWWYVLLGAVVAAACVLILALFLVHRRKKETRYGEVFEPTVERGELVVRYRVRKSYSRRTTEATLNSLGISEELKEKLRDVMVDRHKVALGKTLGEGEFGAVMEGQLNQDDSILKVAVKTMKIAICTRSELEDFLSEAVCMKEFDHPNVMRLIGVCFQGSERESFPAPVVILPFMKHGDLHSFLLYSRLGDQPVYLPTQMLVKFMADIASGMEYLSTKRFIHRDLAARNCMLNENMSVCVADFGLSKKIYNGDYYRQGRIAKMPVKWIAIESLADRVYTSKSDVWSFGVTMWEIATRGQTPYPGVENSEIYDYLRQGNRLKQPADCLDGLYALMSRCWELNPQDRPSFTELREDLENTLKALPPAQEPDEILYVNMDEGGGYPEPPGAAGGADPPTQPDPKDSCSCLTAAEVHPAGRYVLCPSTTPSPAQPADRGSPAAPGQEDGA

[16] = target: Serine/threonine-protein kinase B-raf (Homo sapiens, UniProt P15056, V600E); assay: Inhibition of bRaf V599E mutant
[17] = target: T3, Ephrin type-B receptor 4 (Homo sapiens, UniProt P54760); assay: Inhibition of EphB4
T3 sequence (P54760 whole entry): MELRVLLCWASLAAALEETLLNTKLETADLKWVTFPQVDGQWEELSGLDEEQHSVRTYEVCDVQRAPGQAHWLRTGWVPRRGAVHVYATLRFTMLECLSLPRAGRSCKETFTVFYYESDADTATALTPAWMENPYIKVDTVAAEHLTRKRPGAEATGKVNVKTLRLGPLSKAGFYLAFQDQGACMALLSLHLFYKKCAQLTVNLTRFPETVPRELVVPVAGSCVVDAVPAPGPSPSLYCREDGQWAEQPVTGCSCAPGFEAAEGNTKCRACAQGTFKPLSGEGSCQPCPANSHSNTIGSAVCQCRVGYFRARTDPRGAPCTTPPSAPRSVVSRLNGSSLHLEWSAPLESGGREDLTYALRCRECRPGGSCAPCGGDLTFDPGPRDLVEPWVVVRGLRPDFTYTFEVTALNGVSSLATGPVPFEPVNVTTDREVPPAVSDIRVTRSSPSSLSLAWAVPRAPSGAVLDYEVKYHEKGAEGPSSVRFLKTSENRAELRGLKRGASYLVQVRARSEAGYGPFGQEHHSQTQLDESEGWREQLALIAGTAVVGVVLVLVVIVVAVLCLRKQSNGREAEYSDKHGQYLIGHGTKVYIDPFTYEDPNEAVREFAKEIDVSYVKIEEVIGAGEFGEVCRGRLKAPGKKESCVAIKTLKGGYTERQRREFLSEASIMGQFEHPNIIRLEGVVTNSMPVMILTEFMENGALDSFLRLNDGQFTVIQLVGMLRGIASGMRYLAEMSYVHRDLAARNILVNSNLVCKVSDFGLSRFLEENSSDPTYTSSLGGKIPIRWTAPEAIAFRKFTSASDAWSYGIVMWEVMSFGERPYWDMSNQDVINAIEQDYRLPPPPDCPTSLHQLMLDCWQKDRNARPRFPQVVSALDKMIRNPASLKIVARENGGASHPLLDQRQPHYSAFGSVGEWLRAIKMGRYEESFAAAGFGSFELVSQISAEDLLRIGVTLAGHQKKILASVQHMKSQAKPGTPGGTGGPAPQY

Sequence of Fibroblast growth factor receptor 1 (P11362 whole entry): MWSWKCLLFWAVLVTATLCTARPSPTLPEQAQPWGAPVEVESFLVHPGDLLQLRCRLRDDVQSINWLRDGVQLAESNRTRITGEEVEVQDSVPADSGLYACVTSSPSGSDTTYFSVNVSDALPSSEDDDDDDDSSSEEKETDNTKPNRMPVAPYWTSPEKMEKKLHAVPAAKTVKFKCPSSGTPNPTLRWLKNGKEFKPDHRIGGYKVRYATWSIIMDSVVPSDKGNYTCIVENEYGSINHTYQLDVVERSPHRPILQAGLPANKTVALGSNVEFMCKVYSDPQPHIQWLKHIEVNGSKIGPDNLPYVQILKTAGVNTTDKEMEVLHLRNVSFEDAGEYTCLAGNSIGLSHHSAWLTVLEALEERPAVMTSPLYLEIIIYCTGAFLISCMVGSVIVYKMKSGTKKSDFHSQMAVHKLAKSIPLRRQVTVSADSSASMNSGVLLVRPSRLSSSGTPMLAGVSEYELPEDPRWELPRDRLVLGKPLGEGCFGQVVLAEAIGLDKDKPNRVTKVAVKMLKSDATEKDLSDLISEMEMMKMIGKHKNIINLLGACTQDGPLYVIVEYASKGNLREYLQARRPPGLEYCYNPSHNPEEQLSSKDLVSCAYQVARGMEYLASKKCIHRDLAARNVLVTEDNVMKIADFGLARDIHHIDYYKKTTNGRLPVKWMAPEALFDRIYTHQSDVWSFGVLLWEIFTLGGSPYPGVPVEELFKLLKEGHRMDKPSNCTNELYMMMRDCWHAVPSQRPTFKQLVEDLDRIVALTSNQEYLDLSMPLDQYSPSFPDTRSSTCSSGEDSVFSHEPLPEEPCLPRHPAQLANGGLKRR

## CCN(CC)CCOc1ccc(Nc2cc(NC(=O)Nc3c(Cl)cccc3Cl)ncn2)cc1
[1]
  IC50: 960 nM
[2]
  IC50: > 10000 nM
[3]
  IC50: 570 nM
[4]
  IC50: 66 nM
[5]
  IC50: > 10000 nM
[6]
  IC50: 930 nM
[7]
  IC50: > 10000 nM
[8]
  IC50: 350 nM
[9]
  IC50: > 10000 nM
[10]
  IC50: 300 nM
[11]
  IC50: 250 nM
[12]
  IC50: > 10000 nM
[13]
  IC50: > 10000 nM
[14]
  IC50: > 10000 nM
[15]
  IC50: > 10000 nM
[16]
  IC50: 150 nM
[17]
  IC50: 430 nM
